Results from patent US9024012B2, “Methods to treat mixtures of glycosides to obtain one or more of these glycosides in more pure form” (Cargill, Incorporated, priority 2010, dated 2015).

What was measured:
[1] = type: physicochemical
Procedure: Without wishing to be bound, it is believed that separation is more favored at higher temperatures at least in part due to factors including conformational changes as well as solubility differences that are a function of temperature. At room temperature, the solubility of Reb B in a 94 weight percent ethanol solution saturated with Reb A is about 0.3 g per 100 g of solvent, and the solubility of Reb D is about 0.01 g per 100 g. At 100° C., concentrations of Reb D as high as 0.2 g/100 g are observed, and concentrations of Reb B as high as 0.5 g/100 g are observed. The solubility of Reb A in 94 wt % ethanol varies to a much smaller extent.

[2] = relative to sucrose; background statement; cited from earlier work

Row | Molecule | concentrations observed in solution [1] | solubility [1] | sweetness, times the sweetness of sucrose [2]
1 | rebaudioside B [Reb B] | ≤ 0.5 g/100 g | about 0.3 g per 100 g of solvent | –
2 | C=C1C[C@@]23CC[C@H]4[C@@](C)(CCC[C@@]4(C)C(=O)O[C@@H]4O[C@H](CO)[C@@H](O)[C@H](O)[C@H]4O[C@@H]4O[C@H](CO)[C@@H](O)[C@H](O)[C@H]4O)[C@@H]2CC[C@]1(O[C@@H]1O[C@H](CO)[C@@H](O)[C@H](O[C@@H]2O[C@H](CO)[C@@H](O)[C@H](O)[C@H]2O)[C@H]1O[C@@H]1O[C@H](CO)[C@@H](O)[C@H](O)[C@H]1O)C3 [Reb D, rebaudioside D] | ≤ 0.2 g/100 g | about 0.01 g per 100 g of solvent | –
3 | C=C1C[C@@]23CC[C@H]4[C@@](C)(CCC[C@@]4(C)C(=O)O[C@@H]4O[C@H](CO)[C@@H](O)[C@H](O)[C@H]4O)[C@@H]2CC[C@]1(O[C@@H]1O[C@H](CO)[C@@H](O)[C@H](O[C@@H]2O[C@H](CO)[C@@H](O)[C@H](O)[C@H]2O)[C@H]1O[C@@H]1O[C@H](CO)[C@@H](O)[C@H](O)[C@H]1O)C3 [Rebaudioside A, rebaudioside A] | – | – | 250-450 times
